Results on 24 molecules are retold here after patent US10532995B2, “Substituted pyrazole compounds as serine protease inhibitors” (VERSEON CORPORATION, priority 2015, dated 2020).

The target of the first data set is T1, Human thrombin (Homo sapiens, UniProt P00734).
T1 construct: purchased Haematologic Technologies Inc
The data set can be described thus: Thrombin protease activity inhibition, chromogenic substrate S-2238. The settings on record: 3 nM thrombin, 125 μM S-2238, 10 min pre-incubation, RT. It counts as biochemical. The method in brief: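 Thrombin at 3 nM final in 0.05 M Tris pH 7.4, 0.015 M NaCl, 0.01% PEG-8000, at room temperature; compounds as ten-point three-fold dilutions.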
Molecule `COc1ccccc1C(=O)n1nc(C2CCCN(C(=O)OC(C)(C)C)C2)cc1NCc1ccc(Cl)s1` (centres unmarked) [Entry 281, tert-butyl 3-(5-[(5-chlorothiophen-2-yl)methyl]amino-1-(2-methoxybenzoyl)-1H-pyrazol-3-yl)piperidine-1-carboxylate] came in with a 50% inhibitory concentration (IC50) of less than 100 nM.

Regarding `CC(C)(C)OC(=O)N1CCCC(C)(c2cc(NCc3ccc(Cl)s3)n(C(=O)C(C)(C)CO)n2)C1` (centres unmarked) [Entry 282, tert-butyl 3-(5-[(5-chlorothiophen-2-yl)methyl]amino-1-(3-hydroxy-2,2-dimethylpropanoyl)-1H-pyrazol-3-yl)-3-methylpiperidine-1-carboxylate], the 50% inhibitory concentration (IC50) is less than 100 nM. Same read-out and setting: under `CC(C)(C)OC(=O)N1CCCC(c2cc(NCc3ccc(Cl)s3)n(C(=O)C(C)(C)CO)n2)C1` (centres unmarked) [Entry 283, tert-butyl 3-(5-[(5-chlorothiophen-2-yl)methyl]amino-1-(3-hydroxy-2,2-dimethylpropanoyl)-1H-pyrazol-3-yl)piperidine-1-carboxylate] stands less than 100 nM; under `COCC(C)(C)C(=O)n1nc(C2(C)CCCN(C(=O)OC(C)(C)C)C2)cc1NCc1ccc(Cl)s1` (centres unmarked) [Entry 284, tert-butyl 3-(5-[(5-chlorothiophen-2-yl)methyl]amino-1-(3-methoxy-2,2-dimethylpropanoyl)-1H-pyrazol-3-yl)-3-methylpiperidine-1-carboxylate], 100 to 1000 nM. Consider `COCC(C)(C)C(=O)n1nc(C2CCCN(C(=O)OC(C)(C)C)C2)cc1NCc1ccc(Cl)s1` (centres unmarked) [Entry 285, tert-butyl 3-(5-[(5-chlorothiophen-2-yl)methyl]amino-1-(3-methoxy-2,2-dimethylpropanoyl)-1H-pyrazol-3-yl)piperidine-1-carboxylate], for which the 50% inhibitory concentration (IC50) is less than 100 nM. Still for that read-out and setting: the value for `CC(C)(C)OC(=O)N1CCCC(C)(c2cc(NCc3ccc(Cl)s3)n(C(=O)C3(C)CCOCC3)n2)C1` (centres unmarked) [Entry 286, tert-butyl 3-(5-[(5-chlorothiophen-2-yl)methyl]amino-1-(4-methyloxane-4-carbonyl)-l H-pyrazol-3-yl)-3-methylpiperidine-1-carboxylate] was 100 to 1000 nM. `CC(C)(C)OC(=O)N1CCCC(c2cc(NCc3ccc(Cl)s3)n(C(=O)C3(C)CCOCC3)n2)C1` (centres unmarked) [Entry 287, tert-butyl 3-(5-[(5-chlorothiophen-2-yl)methyl]amino-1-(4-methyloxane-4-carbonyl)-1H-pyrazol-3-yl)piperidine-1-carboxylate] returned a concentration for half-maximal inhibition (IC50) of less than 100 nM.

On to `CC(C)(C)OC(=O)N1CCCC(C)(c2cc(NCc3ccc(Cl)s3)n(C(=O)c3ccsc3)n2)C1` (centres unmarked) [Entry 288, tert-butyl 3-(5-[(5-chlorothiophen-2-yl)methyl]amino-1-(thiophene-3-carbonyl)-1H-pyrazol-3-yl)-3-methylpiperidine-1-carboxylate], for which the half-maximal inhibitory concentration (IC50) was less than 100 nM.

In the case of `CC(C)(C)OC(=O)N1CCCC(c2cc(NCc3ccc(Cl)s3)n(C(=O)c3ccsc3)n2)C1` (centres unmarked) [Entry 289, tert-butyl 3-(5-[(5-chlorothiophen-2-yl)methyl]amino-1-(thiophene-3-carbonyl)-1H-pyrazol-3-yl)piperidine-1-carboxylate], the half-maximal inhibitory concentration (IC50) was less than 100 nM. The same measure, in the same setting: the value for `CC(C)(C)OC(=O)N1CCCC(c2cc(NCc3ccc(Cl)s3)[nH]n2)C1` (centres unmarked) [Entry 290, tert-butyl 3-(5-[(5-chlorothiophen-2-yl)methyl]amino-1H-pyrazol-3-yl)piperidine-1-carboxylate] was more than 100000 nM; that for `CC(C)(C)OC(=O)N1CCC(C)(c2cc(NCc3ccc(Cl)s3)n(C(=O)C(C)(C)C)n2)CC1` [Entry 291, tert-butyl 4-(5-[(5-chlorothiophen-2-yl)methyl]amino-1-(2,2-dimethylpropanoyl)-1H-pyrazol-3-yl)-4-methylpiperidine-1-carboxylate] was less than 100 nM; that for `CC(C)(C)OC(=O)N1CCC(c2cc(NCc3ccc(Cl)s3)n(C(=O)C(C)(C)C)n2)CC1` [Entry 292, tert-butyl 4-(5-[(5-chlorothiophen-2-yl)methyl]amino-1-(2,2-dimethylpropanoyl)-1H-pyrazol-3-yl)piperidine-1-carboxylate] was less than 100 nM. Same read-out and setting: under `Cc1c(C2CCN(C(=O)OC(C)(C)C)CC2)nn(C(=O)C(C)(C)C)c1NCc1ccc(Cl)s1` [Entry 293, tert-butyl 4-(5-[(5-chlorothiophen-2-yl)methyl]amino-1-(2,2-dimethylpropanoyl)-4-methyl-1H-pyrazol-3-yl)piperidine-1-carboxylate] stands 100 to 1000 nM; under `COc1ccccc1C(=O)n1nc(C2(C)CCN(C(=O)OC(C)(C)C)CC2)cc1NCc1ccc(Cl)s1` [Entry 294, tert-butyl 4-(5-[(5-chlorothiophen-2-yl)methyl]amino-1-(2-methoxybenzoyl)-1H-pyrazol-3-yl)-4-methylpiperidine-1-carboxylate], less than 100 nM. `COc1ccccc1C(=O)n1nc(C2CCN(C(=O)OC(C)(C)C)CC2)cc1NCc1ccc(Cl)s1` [Entry 295, tert-butyl 4-(5-[(5-chlorothiophen-2-yl)methyl]amino-1-(2-methoxybenzoyl)-1H-pyrazol-3-yl)piperidine-1-carboxylate] gave a half-inhibitory concentration (IC50) of less than 100 nM. With `CC(C)(C)OC(=O)N1CCC(C)(c2cc(NCc3ccc(Cl)s3)n(C(=O)C(C)(C)CO)n2)CC1` [Entry 296, tert-butyl 4-(5-[(5-chlorothiophen-2-yl)methyl]amino-1-(3-hydroxy-2,2-dimethylpropanoyl)-1H-pyrazol-3-yl)-4-methylpiperidine-1-carboxylate], the 50% inhibitory concentration (IC50) was less than 100 nM.

Regarding `CC(C)(C)OC(=O)N1CCC(c2cc(NCc3ccc(Cl)s3)n(C(=O)C(C)(C)CO)n2)CC1` [Entry 297, tert-butyl 4-(5-[(5-chlorothiophen-2-yl)methyl]amino-1-(3-hydroxy-2,2-dimethylpropanoyl)-1H-pyrazol-3-yl)piperidine-1-carboxylate], the IC50 was less than 100 nM. On the same count and under the same terms, under `COCC(C)(C)C(=O)n1nc(C2(C)CCN(C(=O)OC(C)(C)C)CC2)cc1NCc1ccc(Cl)s1` [Entry 298, tert-butyl 4-(5-[(5-chlorothiophen-2-yl)methyl]amino-1-(3-methoxy-2,2-dimethylpropanoyl)-1H-pyrazol-3-yl)-4-methylpiperidine-1-carboxylate] stands less than 100 nM; under `CC(C)(C)OC(=O)N1CCC(C)(c2cc(NCc3ccc(Cl)s3)n(C(=O)C3(C)CCOCC3)n2)CC1` [Entry 299, tert-butyl 4-(5-[(5-chlorothiophen-2-yl)methyl]amino-1-(4-methyloxane-4-carbonyl)-1H-pyrazol-3-yl)-4-methylpiperidine-1-carboxylate], less than 100 nM; under `CC(C)(C)OC(=O)N1CCC(C)(c2cc(NCc3ccc(Cl)s3)n(C(=O)c3ccsc3)n2)CC1` [Entry 300, tert-butyl 4-(5-[(5-chlorothiophen-2-yl)methyl]amino-1-(thiophene-3-carbonyl)-1H-pyrazol-3-yl)-4-methylpiperidine-1-carboxylate], less than 100 nM. On the same count and under the same terms, under `CC(C)(C)OC(=O)N1CCC(c2cc(NCc3ccc(Cl)s3)n(C(=O)c3ccsc3)n2)CC1` [Entry 301, tert-butyl 4-(5-[(5-chlorothiophen-2-yl)methyl]amino-1-(thiophene-3-carbonyl)-1H-pyrazol-3-yl)piperidine-1-carboxylate] stands less than 100 nM. Still for that read-out and setting: the value for `CC(C)(C)OC(=O)N1CCC(c2cc(NCc3ccc(Cl)s3)[nH]n2)CC1` [Entry 302, tert-butyl 4-(5-[(5-chlorothiophen-2-yl)methyl]amino-1H-pyrazol-3-yl)piperidine-1-carboxylate] was more than 100000 nM; that for `Cc1c(C2CCN(C(=O)OC(C)(C)C)CC2)n[nH]c1NCc1ccc(Cl)s1` [Entry 303, tert-butyl 4-(5-[(5-chlorothiophen-2-yl)methyl]amino-4-methyl-1H-pyrazol-3-yl)piperidine-1-carboxylate] was more than 100000 nM.

The test system of another data set is malignant breast tumors.
Experiment: not given
Particulars: at 4 weeks, treated mice; cited from earlier work.
Consider `CCCCCCOC(=O)NC(=N)c1ccc(NCc2nc3cc(C(=O)N(CCC(=O)OCC)c4ccccn4)ccc3n2C)cc1` [dabigatran etexilate], for which the “reduction in tumor volume” value is listed as 50%.

Staying with this data set, now noted: at 4 weeks; cited from earlier work.
Turning to `CCCCCCOC(=O)NC(=N)c1ccc(NCc2nc3cc(C(=O)N(CCC(=O)OCC)c4ccccn4)ccc3n2C)cc1` [dabigatran etexilate], the “weight loss in treated mice” value is listed as “no weight loss”.

The same data set, now with this note: treated mice; cited from earlier work.
Regarding `CCCCCCOC(=O)NC(=N)c1ccc(NCc2nc3cc(C(=O)N(CCC(=O)OCC)c4ccccn4)ccc3n2C)cc1` [dabigatran etexilate], the “reduction of tumor cells in the blood and liver micrometastases” value is recorded as 50-60%.
